Patent US20210290648A1, “Potentiation of B-Lactam Antibiotics and B-Lactam/B-Lactamase Inhibitor Combinations Against Multidrug and Extensively Drug-Resistant Pseudomonas Aeruginosa Using Non-Ribosomal Tobramycin-Cyclam Conjugates” (University of Manitoba, priority 2018, published 2021)

Experiments:
[1] = system: β-lactamase-harboring MDR P. aeruginosa clinical isolates; assay: Triple combination susceptibility (β-lactam + avibactam + compound 2); format: cell-based, Pseudomonas aeruginosa
Description: The diazabicyclooctane β-lactamase inhibitor, avibactam, is able to inhibit a wide range of serine β-lactamases (class A, C, and D) but not metallo-β-lactamases (class B) (50, 51).^50,51 However, the high concentration of avibactam required to neutralize the effects of β-lactamase enzymes in these phenotypes is indicative of concomitant permeability barriers in the isolates, such as reduced porin uptake. […] The results of this study are shown in (FIG. 6). All isolates were resistant to all three β-lactam antibiotics used for the study. […] As expected, the study with meropenem was slightly different from others.
Antimicrobial Susceptibility Assay. The in vitro antimicrobial activity of all compounds/antibiotics against a panel of bacteria was evaluated by microbroth dilution method in accordance with the Clinical and Laboratory Standards Institute (CLSI) guidelines. Overnight grown bacterial cultures were diluted in saline to achieve a 0.5 McFarland turbidity, followed by 1:50 dilution in Mueller-Hinton broth (MHB) for inoculation to a final concentration of approximately 5×10^5CFU/mL. The antimicrobial agents were 2-fold serially diluted in MHB in a 96-well plate and incubated at 37° C. with equal volumes of inoculum for 18 h. The lowest concentration that prevented the visible growth of bacteria was defined as the MIC for each antimicrobial agent. The broth with or without bacterial cells was used as positive or negative control, respectively.
Checkerboard Assay. Combination studies with different antibiotics were performed in 96-well plates as previously described (22). Briefly, the antibiotic of interest was serially diluted in MHB along the abscissa while the adjuvant (newly synthesized conjugates) was serially diluted in MHB along the ordinate. This creates a 10×7 matrix wherein each well consists of a combination of different antibiotic and adjuvant concentrations. Overnight grown bacterial cultures were diluted in saline to achieve a 0.5 McFarland turbidity, followed by 1:50 dilution in Mueller-Hinton broth (MHB) for inoculation to a final concentration of approximately 5×10^5CFU/mL. Equal volume of this bacterial culture was then added to each well and incubated at 37° C. for 18 h. After incubation, the plates were read on EMax® Plus microplate reader (Molecular Devices, Sunnyvale, Calif., USA) at 590 nm. MIC was recorded as wells with the lowest concentration of drugs with no bacterial growth. The fractional inhibitory concentration (FIC) for each antibiotic was calculated by dividing the MIC of the antibiotic in the presence of adjuvant by the MIC of the antibiotic alone. Similarly, the FIC of adjuvant was calculated by dividing the MIC of the adjuvant in the presence of antibiotic by the MIC of the adjuvant alone. FIC index is the sum of both FICs. FIC indices of <0.5 were deemed synergistic; 0.5-4, no interaction; and >4, antagonistic.

[2] = system: WT P. aeruginosa PAO1; assay: Checkerboard combination study / MIC; format: cell-based, Pseudomonas aeruginosa; details: for MIC: Pseudomonas aeruginosa, PAO1, 18 h, antibiotic alone, WT PAO1 (Table 2), read-out: MIC alone; for FICI in the presence of ≤10 μM of 1: antibiotic + compound 1; for FICI in the presence of ≤10 μM of 1 / MIC of Antibiotics in the presence of ≤10 μM of 1 / FICI in the presence of ≤10 μM of 2 / MIC of Antibiotics in the presence of ≤10 μM of 2 / FICI in the presence of ≤10 μM of 3 / MIC of Antibiotics in the presence of ≤10 μM of 3: WT PAO1; for MIC of Antibiotics in the presence of ≤10 μM of 1: antibiotic + compound 1 ≤10 μM; for FICI in the presence of ≤10 μM of 2: antibiotic + compound 2; for MIC of Antibiotics in the presence of ≤10 μM of 2: antibiotic + compound 2 ≤10 μM; for FICI in the presence of ≤10 μM of 3: antibiotic + compound 3; for MIC of Antibiotics in the presence of ≤10 μM of 3: antibiotic + compound 3 ≤10 μM

SMILES | concentration that completely reverses resistance to ceftazidime and aztreonam ([1]; 16-64 μM, not meropenem) [µg/mL] | isolates reaching aztreonam susceptibility breakpoint (≤8 μg/ml) ([1]; aztreonam + single adjuvant 8 μM) | isolates reaching ceftazidime susceptibility breakpoint (≤8 μg/ml) ([1]; ceftazidime + single adjuvant 8 μM) | isolates reaching meropenem susceptibility level ([1]; meropenem + single adjuvant 8 μM) | potentiation of ceftazidime ([1]; single adjuvant at 8 μM, five isolates) | MIC [2] [µg/mL] | FICI in the presence of ≤10 μM of 1 [2] | MIC of Antibiotics in the presence of ≤10 μM of 1 [2] [µg/mL] | FICI in the presence of ≤10 μM of 2 [2] | MIC of Antibiotics in the presence of ≤10 μM of 2 [2] [µg/mL] | FICI in the presence of ≤10 μM of 3 [2] | MIC of Antibiotics in the presence of ≤10 μM of 3 [2] [µg/mL]
NC(=O)[C@@H]1CC[C@@H]2CN1C(=O)N2OS(=O)(=O)O [Avibactam] | 4 to 16 | three out of five | four out of five | one of five | 4-16 fold |  |  |  |  |  |  | 
O=C(N[C@H](CO)[C@H](O)c1ccc([N+](=O)[O-])cc1)C(Cl)Cl [Chloramphenicol] |  |  |  |  |  | 32 | 0.25 | 8 | 0.13 | 4 | 0.25 | 8
CCC[C@@H]1C[C@@H](C(=O)N[C@@H]([C@H]2O[C@H](SC)[C@H](O)[C@@H](O)[C@H]2O)[C@H](C)Cl)N(C)C1 [Clindamycin] |  |  |  |  |  | 1020 | 0.50 | 512 | 0.51 | 512 | 0.07 | 64
C[C@H]1c2cccc(O)c2C(=O)C2=C(O)[C@]3(O)C(=O)C(C(N)=O)=C(O)[C@@H](N(C)C)[C@@H]3[C@@H](O)[C@@H]21 [Doxycycline] |  |  |  |  |  | 8 | 0.50 | 4 | 0.13 | 1 | 0.08 | 0.5
CC[C@H]1OC(=O)[C@H](C)[C@@H](O[C@H]2C[C@@](C)(OC)[C@@H](O)[C@H](C)O2)[C@H](C)[C@@H](O[C@@H]2O[C@H](C)C[C@H](N(C)C)[C@H]2O)[C@](C)(O)C[C@@H](C)C(=O)[C@H](C)[C@@H](O)[C@]1(C)O [Erythromycin] |  |  |  |  |  | 512 | 0.50 |  | 0.50 |  | 0.25 | 
C[C@@H]1O[C@@H]1P(=O)(O)O [Fosfomycin] |  |  |  |  |  | 16 | 0.51 | 8 | 0.50 | 8 | 1.02 | 16
CC(=O)NC[C@H]1CN(c2ccc(N3CCOCC3)c(F)c2)C(=O)O1 [Linezolid] |  |  |  |  |  | 1020 | 1.00 | 1024 | 0.26 | 256 | 0.25 | 256
CN(C)c1ccc(O)c2c1C[C@H]1C[C@H]3[C@H](N(C)C)C(O)=C(C(N)=O)C(=O)[C@@]3(O)C(O)=C1C2=O [Minocycline] |  |  |  |  |  | 8 | 0.25 | 2 | 0.25 | 2 | 0.17 | 1
